This is an account of results in article PMC10653753 (Emerging Microbes & Infections, 2023).

The structures appear in SMILES notation. Like-named read-outs stand apart in the source and are kept apart here.

Series [1] relates to CHIKV. Nature of the series: Cell-based antiviral efficacy in CHIKV-infected Vero cells, plaque titration. The conditions noted are these: Chikungunya virus, 72 h, read-out: EC50, CHIKV replication.
Series [2] concerns CHIKV. The conditions noted are these: Vero cells, cited from earlier work.
Series [3] has as its system CHIKV. The conditions noted are these: read-out: 50% inhibitory concentration against CHIKV; Huh-7 cells; cited from earlier work.
For series [4] the following is noted: monkeys, 500 mg/kg; cited from earlier work.

One may read the EC50 as the concentration that produces a half-maximal response. On to `O=c1cc(-c2ccccc2)oc2cc(O)c(O)c(O)c12` [baicalein], for which the EC50 in the series on CHIKV [1] amounted to 0.52 ± 0.06 µM. Moreover, the “50% inhibitory concentration against CHIKV” value in the series with CHIKV [2] was 1.891 µg/mL. The results for the IC50 with CHIKV [2] (read-out: 50% inhibitory concentration against CHIKV) and with CHIKV [3] were 7 µM and 16.9 µM, respectively. The “Toxicity throughout the pharmacokinetic study” value in series [4] is listed as “no apparent toxicity”.
